Laboratory results taken from patent publication US20250313560A1, “Novel bicyclic benzylamido pyridine derivatives as SOS1 inhibitors” (Boehringer Ingelheim International GmbH, priority 2024, published 2025).

Columns and labels:
SOS1 and KRAS G12C = SOS1 and KRAS G12C (Homo sapiens (Human), UniProt Q07889); test: KRAS::SOS1 AlphaScreen binding assay (KRAS G12C); conditions: average of at least two measurements
SOS1 and KRAS G12D = SOS1 and KRAS G12D (Homo sapiens (Human), UniProt Q07889); test: KRAS::SOS1 AlphaScreen binding assay (KRAS G12D); conditions: average of at least two measurements
[1] = system: ERK phosphorylation in NCI-H358 SOS2 KO cells (KRAS G12C); test: Erk phosphorylation assay; assay type: cell-based, human; conditions: Homo sapiens, NCI-H358, NCI-H358 SOS2 KO cells, EGF stimulated; average of at least two measurements; read-out: pERK IC50
In short: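 NCI-H358 SOS2 KO cells (KRAS G12C) in DMEM/2% FBS were pretreated 50 min with compound, then stimulated with EGF (approx. 8 ng/mL) for 10-15 min. pERK1/2 (Thr202/Tyr204) measured in lysates by AlphaLISA SureFire; IC50 from variable-slope fit, averaged over at least two measurements.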

P450 3A4 = P450 3A4 (Homo sapiens (Human), UniProt P08684); test: Cytochrome P450 isoenzyme inhibition assay (P450 3A4, midazolam); assay type: in vitro ADME; conditions: human liver microsomes, Midazolam as substrate; read-out: CYP3A4 inhibition IC50
In short: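 Midazolam (5 μM) hydroxylation by human liver microsomes (0.1 mg/ml) in 0.1 M TRIS with 5 mM MgCl2, started with 1 mM NADPH. Five compound concentrations in duplicate, e.g. top 50 μM with 1:4 dilutions. Metabolite quantified by LC-MS/MS against internal standard; IC50 from inhibition relative to no-compound control.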

CYP3A4 = CYP3A4 (Homo sapiens (Human), UniProt P08684); test: Mechanism-based inhibition of CYP3A4 assay (MBI 3A4); assay type: in vitro ADME; conditions: human, human liver microsomes, probe midazolam 15 μM (hydroxy-midazolam formation), midazolam substrate, hydroxy-midazolam formation after 30 min preincubation relative to 0 min, read-out: MBI inhibition % ctrl. [%] with MDZ
In short: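 Human liver microsomes (0.2 mg/mL) were preincubated with compound at 0, 5 or 25 μM plus 1 mM NADPH for 0, 10 or 30 min, then diluted 1:10 and incubated 10 min with 15 μM midazolam. Hydroxy-midazolam was measured by LC/MS-MS; readout is formation after 30 min relative to 0 min preincubation (%).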

human hepatocytes = test: Metabolic stability in human hepatocytes; conditions: 1 μM test compound, 50% human serum, percentage of liver blood flow
Method: The metabolic degradation of a test compound is performed with hepatocytes in suspension. After recovery from cryopreservation, human hepatocytes are diluted in Dulbecco's modified eagle medium (supplemented with 3.5 μg glucagon/500 mL, 2.5 mg insulin/500 mL, 3.75 mg hydrocortisone/500 mL, 50% human serum) to obtain a final cell density of 1.0×10^6 cells/mL. Following a preincubation in a cell culture incubator (37° C., 10% CO2), test compound dissolved in DMSO is mixed with the hepatocyte suspension, resulting in a final test compound concentration of 1 μM and a final DMSO concentration of 0.05%.
The cell suspension is incubated at 37° C. (cell culture incubator, horizontal shaker) and samples are removed from the incubation after 0, 0.5, 1, 2, 4 and 6 hours. Samples are quenched with acetonitrile (containing internal standard) and pelleted by centrifugation. The supernatant is transferred to a deep-well plate and prepared for analysis of decline of parent compound by HPLC-MS/MS.
The percentage of remaining test compound is calculated using the peak area ratio (test compound/internal standard) of each incubation time point relative to the time point 0 peak area ratio. The log-transformed data are plotted versus incubation time, and the absolute value of the slope obtained by linear regression analysis is used to estimate in vitro half-life (T1/2).
CL_[sequence]_IN VIVO[mL/min/kg]=(CL_[sequence][μL/min/10^6cells]×hepatocellularity[10^6cells/g liver]×liver factor[g/kg body weight])/1000
Hepatic in vivo blood clearance (CL) is predicted according to the well-stirred liver model considering an average liver blood flow (QH) of 20.7 mL/min/kg:
CL[mL/min/kg]=CL_[sequence]_IN VIVO[mL/min/kg]×hepatic blood flow[mL/min/kg]/(CL_[sequence]_IN VIVO[mL/min/kg]+hepatic blood flow[mL/min/kg])
Results are expressed as percentage of hepatic blood flow:
QH[%]=CL[mL/min/kg]/hepatic blood flow[mL/min/kg])

P450 3A4, sequence (P08684 whole entry): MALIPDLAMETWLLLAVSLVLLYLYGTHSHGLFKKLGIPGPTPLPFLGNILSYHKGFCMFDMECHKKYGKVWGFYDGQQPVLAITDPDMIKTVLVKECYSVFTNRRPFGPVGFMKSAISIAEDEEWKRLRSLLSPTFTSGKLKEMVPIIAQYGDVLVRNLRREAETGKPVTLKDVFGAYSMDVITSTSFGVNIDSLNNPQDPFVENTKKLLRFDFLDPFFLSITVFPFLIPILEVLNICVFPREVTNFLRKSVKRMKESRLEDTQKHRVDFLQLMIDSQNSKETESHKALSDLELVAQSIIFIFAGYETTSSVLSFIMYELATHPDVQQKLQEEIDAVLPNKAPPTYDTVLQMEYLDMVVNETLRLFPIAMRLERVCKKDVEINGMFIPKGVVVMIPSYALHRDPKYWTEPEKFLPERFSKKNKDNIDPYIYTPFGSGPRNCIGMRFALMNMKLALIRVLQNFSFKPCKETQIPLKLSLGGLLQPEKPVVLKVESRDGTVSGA
CYP3A4, sequence (P08684 whole entry): as above
SOS1 and KRAS G12D, sequence (Q07889 564-1049, stated change not applied): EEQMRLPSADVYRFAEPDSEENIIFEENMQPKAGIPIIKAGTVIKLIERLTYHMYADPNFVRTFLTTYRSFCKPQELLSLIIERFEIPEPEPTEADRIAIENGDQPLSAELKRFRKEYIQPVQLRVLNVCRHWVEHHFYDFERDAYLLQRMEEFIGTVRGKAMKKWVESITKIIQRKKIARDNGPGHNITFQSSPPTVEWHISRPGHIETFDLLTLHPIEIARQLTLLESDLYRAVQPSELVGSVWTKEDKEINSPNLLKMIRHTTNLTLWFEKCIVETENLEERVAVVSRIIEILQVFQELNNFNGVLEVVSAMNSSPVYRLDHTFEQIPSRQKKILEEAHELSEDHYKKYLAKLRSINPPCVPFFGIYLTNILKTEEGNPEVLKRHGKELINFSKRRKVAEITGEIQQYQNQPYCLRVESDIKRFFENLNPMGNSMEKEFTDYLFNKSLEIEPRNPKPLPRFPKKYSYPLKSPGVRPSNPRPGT
SOS1 and KRAS G12C, sequence (Q07889 564-1049, stated change not applied): as above

Row | IC50 (SOS1 and KRAS G12C) | IC50 (SOS1 and KRAS G12D) | IC50 [1] | IC50 (P450 3A4) | inhibition at 30 min (CYP3A4) | Hepatic clearance - QH[%] in human hepatocytes (human hepatocytes) | Compound
1 | 20 nM | 15 nM | 0.09 µM | > 50 µM | 92% | 5% | C[C@@H](NC(=O)c1cc(C2=CCC(N3CCC[C@H](O)C3)CC2)c2nncn2c1)c1cccc(C(F)F)c1F (stereo partly drawn) [Example E82]
2 | 38 nM | 37 nM | 0.174 µM | > 50 µM | 103% | 10% | Cc1nc2c([C@H]3CC[C@H](N4CCCC4)CC3)cc(C(=O)N[C@H](C)c3cccc(C(F)F)c3F)cn2n1 [Example E84]
3 | 37 nM | 24 nM | 0.158 µM | > 50 µM | 102% | 14% | Cc1nc2c([C@H]3CC[C@H](N4CCC[C@H](O)C4)CC3)cc(C(=O)N[C@H](C)c3cccc(C(F)F)c3F)cn2n1 [Example E85]
4 | 61 nM | 44 nM | 0.174 µM | > 50 µM | 96% | 15% | C[C@@H](NC(=O)c1cc(N2CCC3(CCCN3C)CC2)n2ncnc2c1)c1cccc(C(F)(F)F)c1F [Example E86]
5 | 56 nM | 46 nM | 0.261 µM | > 50 µM | 95% | 24% | C[C@@H](NC(=O)c1cc(N2CCC(N3CCC(O)C(C)(O)C3)CC2)c2ncnn2c1)c1cccc(C(F)(F)F)c1F (stereo partly drawn) [Example cis-E29]

More lines, now with the values behind:

Row | Compound | IC50 (SOS1 and KRAS G12C) | IC50 (SOS1 and KRAS G12D) | IC50 [1] | IC50 (P450 3A4) | inhibition at 30 min (CYP3A4) | Hepatic clearance - QH[%] in human hepatocytes (human hepatocytes)
6 | CO[C@@H]1CCN(C2CCN(c3cc(C(=O)N[C@H](C)c4cccc(C(F)(F)F)c4F)cn4cnnc34)CC2)C1 [Example E75] | 65 nM | 60 nM | 0.408 µM | > 50 µM | 99% | 9%
7 | C[C@@H](NC(=O)c1cc(N2CCC3(CCCN3C)CC2)c2nncn2c1)c1cccc(C(F)(F)F)c1F [Example E77] | 27 nM | 22 nM | 0.202 µM | > 50 µM | 88% | <4%
8 | Cc1nc2c(N3CCC4(CCCN4)CC3)cc(C(=O)N[C@H](C)c3cccc(C(F)(F)F)c3F)cn2n1 [Example E78] | 43 nM | 41 nM | 0.223 µM | > 50 µM | 103% | 5%
9 | Cc1nnc2c(N3CCC4(CCCN4C)CC3)cc(C(=O)N[C@H](C)c3cccc(C(F)(F)F)c3F)cn12 [Example E79] | 20 nM | 14 nM | 0.106 µM | > 50 µM | 90% | 8%
10 | Cc1c([C@@H](C)NC(=O)c2cc(N3CCC4(CCCN4C)CC3)c3nnc(C)n3c2)cccc1C(F)(F)F [Example E80] | 37 nM | 27 nM | 0.213 µM | > 50 µM | 88% | <4%
11 | C[C@@H](NC(=O)c1cc([C@H]2CC[C@H](N3CCC[C@H](O)C3)CC2)c2nncn2c1)c1cccc(C(F)F)c1F [Example E81] | 25 nM | 24 nM | 0.258 µM | > 50 µM | 93% | 15%
